# From PMC9467586, “Development of novel 9-O-substituted-13-octylberberine derivatives as potential anti-hepatocellular carcinoma agents” (Journal of Enzyme Inhibition and Medicinal Chemistry, 2022)
# Assays:
# HepG2 cells = test: In vitro antiproliferative MTT assay, HepG2 cells; type: cell-based, human; details: Homo sapiens, 72 h, mean ± SD (n = 3), read-out: IC50 (antiproliferative activity against HepG2 cells)
# Protocol: HepG2, Sk-Hep-1, Huh-7, Hep3B and L-02 cells were purchased from Nanjing Key Gen Biotech Co. Ltd. (Nanjing, China). The cytotoxicity of test compounds was determined using an MTT assay. Briefly, the cell lines were incubated at 37 °C in a humidified 5% CO2 incubator for 24 h in 96-microwell plates. After medium removal, 100 μL of culture medium with 0.1% DMSO containing test compounds at different concentrations was added to each well and incubated at 37 °C for another 72 h. The MTT (5 mg/mL in PBS) was added and incubated for another 4 h, the optical density was detected with a microplate reader at 490 nm. The IC50 values were calculated according to the dose-dependent curves. All the experiments were repeated in at least three independent experiments.
IC50 (HepG2 cells) [µM],melting point [°C],Compound
6.25 ± 0.56,167 to 169,"CCCCCCCCc1c2[n+](cc3c(OCCCN4CCOCC4)c(OC)ccc13)CCc1cc3c(cc1-2)OCO3.[Br-] [Compound 6c, 10-Methoxy-9–(3-morpholinopropoxy)-13-octyl-5,6-dihydro-[1,3]dioxolo[4,5-g]isoquinolino[3,2-a]isoquinolin-7-ium bromide]"
1.64 ± 0.13,132 to 134,"CCCCCCCCc1c2[n+](cc3c(OCCCCCCN4CCCCC4)c(OC)ccc13)CCc1cc3c(cc1-2)OCO3.[Br-] [Compound 6g, 10-Methoxy-13-octyl-9-((6-(piperidin-1-yl)hexyl)oxy)-5,6-dihydro-[1,3]dioxolo[4,5-g]isoquinolino[3,2-a]isoquinolin-7-ium bromide]"
1.08 ± 0.1,136 to 138,"CCCCCCCCc1c2[n+](cc3c(OCCCCCCCCCCN4CCN(C)CC4)c(OC)ccc13)CCc1cc3c(cc1-2)OCO3.[Br-] [Compound 6n, 10-Methoxy-9-((10–(4-methylpiperazin-1-yl)decyl)oxy)-13-octyl-5,6-dihydro-[1,3]dioxolo[4,5-g]isoquinolino[3,2-a]isoquinolin-7-ium bromide]"
4.75 ± 0.24,149 to 151,"CCCCCCCCc1c2[n+](cc3c(OCCCCCCN(CC)CC)c(OC)ccc13)CCc1cc3c(cc1-2)OCO3.[Br-] [Compound 6d, 9-((6-(Diethylamino)hexyl)oxy)-10-methoxy-13-octyl-5,6-dihydro-[1,3]dioxolo[4,5-g]isoquinolino[3,2-a]isoquinolin-7-ium bromide]"
1.44 ± 0.13,142 to 144,"CCCCCCCCc1c2[n+](cc3c(OCCCCCCCCCCN4CCCCC4)c(OC)ccc13)CCc1cc3c(cc1-2)OCO3.[Br-] [Compound 6m, 10-Methoxy-13-octyl-9-((10-(piperidin-1-yl)decyl)oxy)-5,6-dihydro-[1,3]dioxolo[4,5-g]isoquinolino[3,2-a]isoquinolin-7-ium bromide]"
7.75 ± 0.83,135 to 137,"CCCCCCCCc1c2[n+](cc3c(OCCCN4CCCC4)c(OC)ccc13)CCc1cc3c(cc1-2)OCO3.[Br-] [Compound 6b, 10-Methoxy-13-octyl-9–(3-(pyrrolidin-1-yl)propoxy)-5,6-dihydro-[1,3]dioxolo[4,5-g]isoquinolino[3,2-a]isoquinolin-7-ium bromide]"
6.14 ± 0.57,–,"CCCCCCc1c2[n+](cc3c(OC)c(OC)ccc13)CCc1cc3c(cc1-2)OCO3 [Compound 3b, 13-Hexyl-9,10-dimethoxy-5,6-dihydro-[1,3]dioxolo[4,5-g]isoquinolino[3,2-a]isoquinolin-7-ium chloride]"
3.91 ± 0.36,126 to 128,"CCCCCCCCc1c2[n+](cc3c(OCCCCCCN4CCCC4)c(OC)ccc13)CCc1cc3c(cc1-2)OCO3.[Br-] [Compound 6e, 10-Methoxy-13-octyl-9-((6-(pyrrolidin-1-yl)hexyl)oxy)-5,6-dihydro-[1,3]dioxolo[4,5-g]isoquinolino[3,2-a]isoquinolin-7-ium bromide]"
4.45 ± 0.34,–,"CCCCCCCCCCc1c2[n+](cc3c(OC)c(OC)ccc13)CCc1cc3c(cc1-2)OCO3 [Compound 3d, 13-Decyl-9,10-dimethoxy-5,6-dihydro-[1,3]dioxolo[4,5-g]isoquinolino[3,2-a]isoquinolin-7-ium chloride]"
> 50,–,"COc1ccc2c(Cc3ccccc3)c3[n+](cc2c1OC)CCc1cc2c(cc1-3)OCO2 [Compound 3a, 13-Benzyl-9,10-dimethoxy-5,6-dihydro-[1,3]dioxolo[4,5-g]isoquinolino[3,2-a]isoquinolin-7-ium bromide]"
4.24 ± 0.44,–,"CCCCCCCCCCCCc1c2[n+](cc3c(OC)c(OC)ccc13)CCc1cc3c(cc1-2)OCO3 [Compound 3e, 13-Dodecyl-9,10-dimethoxy-5,6-dihydro-[1,3]dioxolo[4,5-g]isoquinolino[3,2-a]isoquinolin-7-ium chloride]"
